Measured values: patent US10793563B2, “GCN2 inhibitors and uses thereof” (Merck Patent GmbH, priority 2018, dated 2020)

Key:
GCN2 kinase = GCN2 kinase (Homo sapiens (Human), UniProt Q9P2K8); assay: GCN2 Enzyme Inhibition Assay (Transcreener ADP2 fluorescence polarization); format: biochemical; settings: 280 μM ATP, 200 μM (RS)7 peptide, 4 nM GCN2, 25° C.; for Ki: Ki(app)
Summary of the method: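 Transcreener ADP2 fluorescence polarization detection of ADP from 4 nM GCN2 with (RS)7 substrate in 25 mM Tris-HCl pH 7.5, 50 mM NaCl, 10 mM MgCl2, 1 mM DTT. Compound pre-incubated with enzyme 10 min at 25 °C; reaction started by ATP, run 1 h at 25 °C. IC50 and Ki(app) by tight-binding fit.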

[1] = target: intracellular GCN2 (phosphorylation of the GCN2 substrate eIF2α) (Homo sapiens (Human), UniProt Q9P2K8); assay: GCN2 Cellular Inhibition Assay (AlphaScreen SureFire P-eIF2α Ser51, borrelidin-treated U2OS cells); format: cell-based; settings: 10 μM borrelidin, 1 h, phosphorylated eIF2α Ser51, read-out: GCN2 Biomarker (IC50)
Method: Compounds can be screened for their ability to inhibit intracellular GCN2 using an AlphaScreen assay (Perkin Elmer) to detect phosphorylation of the GCN2 substrate eIF2α in borrelidin-treated cells. U2OS cells are plated at 5,000 cells per well in 384-well white polystyrene plates (Corning 3570) in McCoy's 5A media (GIBCO 26600-023) supplemented with 10% foetal bovine serum (SAFC 12103C), Penicillin/Streptomycin solution diluted 1:100 (Sigma P0781), and 2 mM L-glutamine (Sigma G7513), and allowed to adhere overnight at 37° C. in 5% CO2. Compounds are then added to the cell media from a final concentration of 40 μM in 4-fold serial dilutions. Borrelidin (FluoroChem M01440) is immediately added to the wells to a final concentration of 10 μM and the cells are incubated for 1 h at 37° C. in 5% CO2. After 1 h of treatment with borrelidin, the media is removed, and the cells are lysed with lysis buffer (TGR BioSceinces TGRLB) at ambient temperature.
An AlphaScreen SureFire P-eIF2α (Ser51) assay kit (Perkin Elmer TGREIF2S) was used to measure levels of eIF2α phosphorylated on Serine 51. Anti-phosphorylated eIF2α Ser51 antibody-linked acceptor beads (TGR BioScience 6760617) are added to the cell homogenate (diluted 1:250 into a mixture of activation (TGR BioScience TGRAB) and reaction buffer (TGR BioScience TGREIF2S) prepared immediately before use). The plate is then incubated for 2 h at ambient temperature in the dark. Anti-eIF2α antibody-linked donor beads (TGR BioScience 6760617) were then added (diluted 1:100 in dilution buffer (TGR BioScience TGRDB) prepared immediately before use). The plate is then incubated overnight at ambient temperature in the dark.
Plates are analyzed on an Alpha Technology-compatible PHERAstar FS plate reader (BMG Labtech Version 1.14) to quantify phosphorylated eIF2α Ser51 levels. The percentage inhibition of phosphorylated eIF2α is calculated by comparison to control wells stimulated with borrelidin alone.

GCN2 kinase, sequence (Q9P2K8 whole entry): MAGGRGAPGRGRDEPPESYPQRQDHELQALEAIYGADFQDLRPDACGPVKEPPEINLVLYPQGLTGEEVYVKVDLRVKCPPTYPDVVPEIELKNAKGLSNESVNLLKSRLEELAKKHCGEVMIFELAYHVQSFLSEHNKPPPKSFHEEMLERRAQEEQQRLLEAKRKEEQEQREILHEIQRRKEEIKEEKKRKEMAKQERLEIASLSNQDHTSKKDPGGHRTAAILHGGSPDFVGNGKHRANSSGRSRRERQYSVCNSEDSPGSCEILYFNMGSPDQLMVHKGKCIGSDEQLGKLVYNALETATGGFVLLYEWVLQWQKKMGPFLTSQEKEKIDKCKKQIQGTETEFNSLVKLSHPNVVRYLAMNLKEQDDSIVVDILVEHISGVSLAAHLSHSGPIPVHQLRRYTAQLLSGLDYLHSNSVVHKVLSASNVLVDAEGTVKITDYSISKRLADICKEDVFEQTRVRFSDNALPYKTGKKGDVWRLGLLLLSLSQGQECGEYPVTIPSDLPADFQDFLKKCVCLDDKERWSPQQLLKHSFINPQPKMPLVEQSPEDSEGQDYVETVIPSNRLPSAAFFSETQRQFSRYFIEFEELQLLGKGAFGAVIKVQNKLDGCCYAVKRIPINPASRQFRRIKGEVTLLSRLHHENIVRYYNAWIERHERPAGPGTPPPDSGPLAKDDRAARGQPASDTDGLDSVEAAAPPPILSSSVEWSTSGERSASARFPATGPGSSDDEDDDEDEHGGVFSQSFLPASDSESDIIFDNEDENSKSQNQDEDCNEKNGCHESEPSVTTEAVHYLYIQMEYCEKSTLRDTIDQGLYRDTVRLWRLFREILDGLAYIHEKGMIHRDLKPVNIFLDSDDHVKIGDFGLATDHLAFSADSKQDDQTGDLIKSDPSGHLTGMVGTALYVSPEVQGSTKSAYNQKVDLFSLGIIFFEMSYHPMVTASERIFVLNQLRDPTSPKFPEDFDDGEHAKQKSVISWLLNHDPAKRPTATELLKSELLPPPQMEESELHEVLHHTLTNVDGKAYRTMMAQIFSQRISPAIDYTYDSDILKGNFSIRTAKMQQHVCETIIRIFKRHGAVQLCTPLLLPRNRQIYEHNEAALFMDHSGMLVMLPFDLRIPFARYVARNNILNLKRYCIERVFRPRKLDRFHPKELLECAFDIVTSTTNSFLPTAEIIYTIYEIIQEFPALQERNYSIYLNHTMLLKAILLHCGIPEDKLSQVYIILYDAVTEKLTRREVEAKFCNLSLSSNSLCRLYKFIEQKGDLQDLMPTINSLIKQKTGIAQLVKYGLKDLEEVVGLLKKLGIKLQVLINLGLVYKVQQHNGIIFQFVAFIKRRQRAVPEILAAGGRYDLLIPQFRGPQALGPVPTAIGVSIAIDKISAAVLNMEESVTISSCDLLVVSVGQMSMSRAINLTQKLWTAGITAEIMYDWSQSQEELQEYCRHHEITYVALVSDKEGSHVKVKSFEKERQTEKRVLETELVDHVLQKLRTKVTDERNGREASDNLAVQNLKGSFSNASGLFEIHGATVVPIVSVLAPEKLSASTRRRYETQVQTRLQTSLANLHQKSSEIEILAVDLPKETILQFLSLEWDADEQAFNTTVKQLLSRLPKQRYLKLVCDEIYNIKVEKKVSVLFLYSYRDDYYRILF
intracellular GCN2 (phosphorylation of the GCN2 substrate eIF2α), sequence (Q9P2K8 whole entry): as above

Row | IC50 (GCN2 kinase) [nM] | IC50 [1] [nM] | Ki (GCN2 kinase) [nM] | SMILES
1 | 10 to 100 | 500 to 5000 |  | C[C@H]1CN(c2ccnc(-c3cnc4ccc(C(F)F)cn34)n2)C[C@@H](CO)O1 [I-524, ((2S,6S)-4-(2-(6-(difluoromethyl)imidazo[1,2-a]pyridin-3-yl)pyrimidin-4-yl)-6-methylmorpholin-2-yl)methanol]
2 | 10 to 100 | > 5000 |  | CC1(C)CN(c2ccnc(-c3cnc4ccc(C(F)F)cn34)n2)CC2(CN(S(C)(=O)=O)C2)O1 [I-396, 8-(2-(6-(difluoromethyl)imidazo[1,2-a]pyridin-3-yl)pyrimidin-4-yl)-6,6-dimethyl-2-(methylsulfonyl)-5-oxa-2,8-diazaspiro[3.5]nonane]
3 |  | 500 to 5000 | 10 to 100 | C[C@H]1CN(c2ccnc(-c3cnc4ccc(C(F)(F)F)cn34)n2)C[C@@H](CNS(C)(=O)=O)C1(F)F (stereo in doubt) [I-8, N-[[-4,4-Difluoro-5-methyl-1-[2-[6-(trifluoromethyl)imidazo[1,2-a]pyridin-3-yl]pyrimidin-4-yl]-3-piperidyl]methyl]methanesulfonamide]
4 | 10 to 100 | 500 to 5000 |  | Cc1[nH]ncc1[C@@H]1CN(c2ccnc(-c3cnc4cc(F)c(Cl)cn34)n2)C[C@@H](C)O1 [I-538, (2R,6R)-4-(2-(6-chloro-7-fluoroimidazo[1,2-a]pyridin-3-yl)pyrimidin-4-yl)-2-methyl-6-(5-methyl-1H-pyrazol-4-yl)morpholine]
5 | 10 to 100 | 500 to 5000 |  | COc1cc(-c2cnc3ccc(Cl)cn23)nc(N2C[C@H](C)C[C@H](c3cn[nH]c3)C2)n1 [I-279, 6-chloro-3-(6-methoxy-2-((3R,5R)-3-methyl-5-(1H-pyrazol-4-yl)piperidin-1-yl)pyrimidin-4-yl)imidazo[1,2-a]pyridine]
6 | 10 to 100 | < 500 |  | Cc1[nH]ncc1C1N[C@@H](C)CN(c2nccc(-c3cnc4ccc(C(F)(F)F)cn34)n2)[C@H]1C (stereo partly drawn) [I-172, 3-(2-((2S,5S)-2,5-dimethyl-3-(5-methyl-1H-pyrazol-4-yl)piperazin-1-yl)pyrimidin-4-yl)-6-(trifluoromethyl)imidazo[1,2-a]pyridine]
7 | 100 to 1000 | 500 to 5000 |  | C[C@@H]1C[C@H](N=S(C)(C)=O)CN(c2ccnc(-c3cnc4ccc(Oc5ccccc5)cn34)n2)C1 [I-325, dimethyl({[(3 S,5R)-5-methyl-1-(2-{6-phenoxyimidazo[1,2-a]pyridin-3-yl}pyrimidin-4-yl)piperidin-3-yl]imino})-λ6-sulfanone]
8 | 10 to 100 | 500 to 5000 |  | NC(=O)C1CN(c2ccnc(-c3cnc4ccc(C(F)(F)F)cn34)n2)CCN1CCC(F)(F)F (stereo not drawn) [I-245, 4-(2-(6-(trifluoromethyl)imidazo[1,2-a]pyridin-3-yl)pyrimidin-4-yl)-1-(3,3,3-trifluoropropyl)piperazine-2-carboxamide]

The remaining lines, values behind:

Row | SMILES | IC50 (GCN2 kinase) [nM] | IC50 [1] [nM] | Ki (GCN2 kinase) [nM]
9 | C[C@@H]1C[C@H](c2cn[nH]c2)CN(c2nccc(-c3cnc4ccc(Cl)cn34)n2)C1 [I-196, 6-chloro-3-(2-((3R,5R)-3-methyl-5-(1H-pyrazol-4-yl)piperidin-1-yl)pyrimidin-4-yl)imidazo[1,2-a]pyridine] | < 10 | < 500 | 
10 | COCC1(CN2CCN(c3ccnc(-c4cnc5ccc(C(F)(F)F)cn45)n3)[C@H](C)[C@@H]2c2cn[nH]c2)CCC1 (stereo in doubt) [I-511, 4-[(2R,3 S)-4-{[1-(methoxymethyl)cyclobutyl]methyl}-2-methyl-3-(1H-pyrazol-4-yl)piperazin-1-yl]-2-[6-(trifluoromethyl)imidazo[1,2-a]pyridin-3-yl]pyrimidine] | < 10 | < 500 | 
11 | CC(O)C(=O)N1CCN(c2ccnc(-c3cnc4ccc(C(F)(F)F)cn34)n2)CC1c1cn[nH]c1 (stereo not drawn) [I-420, 1-(2-(1H-pyrazol-4-yl)-4-(2-(6-(trifluoromethyl)imidazo[1,2-a]pyridin-3-yl)pyrimidin-4-yl)piperazin-1-yl)-2-hydroxypropan-1-one] | 10 to 100 | 500 to 5000 | 
12 | N#C[C@H]1CCCN(c2ccnc(-c3cnc4ccc(C(F)(F)F)cn34)n2)C1 [I-227, (S)-1-(2-(6-(trifluoromethyl)imidazo[1,2-a]pyridin-3-yl)pyrimidin-4-yl)piperidine-3-carbonitrile] | 10 to 100 | 500 to 5000 | 
13 | COCCn1cc([C@H]2C[C@@H](C)CN(c3nccc(-c4cnc5ccc(C(F)(F)F)cn45)n3)C2)cn1 [I-143, 3-(2-((3R,5R)-3-(1-(2-methoxyethyl)-1H-pyrazol-4-yl)-5-methylpiperidin-1-yl)pyrimidin-4-yl)-6-(trifluoromethyl)imidazo[1,2-a]pyridine] | 10 to 100 | < 500 | 
14 | CC1CN(c2nccc(-c3cnc4ccc(C(F)(F)F)cn34)n2)C(C)C(c2cn[nH]c2)N1 (single isomer, unassigned) [I-34, 3-[2-[2,5-dimethyl-3-(1H-pyrazol-4-yl)piperazin-1-yl]pyrimidin-4-yl]-6-(trifluoromethyl)imidazo[1,2-a]pyridine] |  | < 500 | < 10
15 | O=C(O)CC1CN(c2ccnc(-c3cnc4ccc(Cl)cn34)n2)CCO1 (stereo not drawn) [I-298, 2-(4-(2-(6-chloroimidazo[1,2-a]pyridin-3-yl)pyrimidin-4-yl)morpholin-2-yl)acetic acid] | 100 to 1000 | > 5000 | 
16 | NC(=O)[C@H]1CCCN(c2nc(-c3cnc4ccc(C(F)(F)F)cn34)ncc2F)C1 [I-278, (S)-1-(5-fluoro-2-(6-(trifluoromethyl)imidazo[1,2-a]pyridin-3-yl)pyrimidin-4-yl)piperidine-3-carboxamide] | < 10 | < 500 | 
17 | Cc1ncc(CN2CCN(c3ccnc(-c4cnc5ccc(C(F)(F)F)cn45)n3)CC2c2cn[nH]c2)[nH]1 (stereo not drawn) [I-372, 3-(4-(4-((2-methyl-1H-imidazol-5-yl)methyl)-3-(1H-pyrazol-4-yl)piperazin-1-yl)pyrimidin-2-yl)-6-(trifluoromethyl)imidazo[1,2-a]pyridine] | < 10 | 500 to 5000 | 
18 | FC(F)C1CN(c2ccnc(-c3cnc4ccc(C(F)(F)F)cn34)n2)CCO1 (stereo not drawn) [I-225, 2-(difluoromethyl)-4-(2-(6-(trifluoromethyl)imidazo[12-a]pyridin-3-yl)pyrimidin-4-yl)morpholine] | 100 to 1000 | 500 to 5000 | 
19 | CC(C)(C)OC(=O)N1CC2(CCCN(c3ccnc(-c4cnc5ccc(C(F)(F)F)cn45)n3)C2)C1 [I-387, tert-butyl 6-(2-(6-(trifluoromethyl)imidazo[1,2-a]pyridin-3-yl)pyrimidin-4-yl)-2,6-diazaspiro[3.5]nonane-2-carboxylate] | 100 to 1000 | 500 to 5000 | 
20 | CS(=O)(=O)NC[C@@H]1CN(c2nccc(-c3cnc4ccc(C(F)F)cn34)n2)CCO1 [I-17, N-[[(2S)-4-[4-[6-(Difluoromethyl)imidazo[1,2-a]pyridin-3-yl]pyrimidin-2-yl]morpholin-2-yl]methyl]methanesulfonamide] |  | < 500 | < 10
21 | O=C(C1CC1(F)F)N1CCN(c2ccnc(-c3cnc4ccc(C(F)(F)F)cn34)n2)CC1c1cn[nH]c1 (stereo not drawn) [I-400, (2-(1H-pyrazol-4-yl)-4-(2-(6-(trifluoromethyl)imidazo[1,2-a]pyridin-3-yl)pyrimidin-4-yl)piperazin-1-yl)(2,2-difluorocyclopropyl)methanone] | 10 to 100 | 500 to 5000 | 
